In patent US7112602B2, “Methods of treating undesired angiogenesis with 2-methyl-EM-138” (The Children's Medical Center Corporation, priority 1998, dated 2006):
Marks after values point to notes of the source that are not given here.

What was measured:
[1] = system: B16-BL6 melanoma cells; assay: B16-BL6 melanoma pulmonary metastasis model, intraperitoneal treatment; type: in vivo, C57B1/6 mice; conditions: for angiogenesis inhibitory activity (comparison in words): B16-BL6 metastasis studies; for angiogenesis inhibitory activity (comparison in words) / T/C (ratio of lung metastases of treated vs. control animals) / Mean Number of Pulmonary Metastases / % Inhibition / IC50 (50% inhibition of surface metastasis): i.p.; for T/C (ratio of lung metastases of treated vs. control animals): 0.4 mmol/kg in 2.8% DMSO; for T/C (ratio of lung metastases of treated vs. control animals) / % Inhibition: from 72 hours after tumor cells, day 14; for Mean Number of Pulmonary Metastases / % Inhibition: 1.0 ml of 5.0 mg/ml in 2.8% DMSO; for Mean Number of Pulmonary Metastases: four times a day from 72 hours after tumor cells, surface lung metastases counted day 14; for % Inhibition: versus DMSO control, p < 0.01; for IC50 (50% inhibition of surface metastasis): varying doses, average of three experiments, 7-R-(+) tested once at each dose, up to 0.8 mmol/kg; for anti-tumor activity (summary in words): summary of Tables 1 and 2, at the tested doses
Description: B16-BL6 melanoma cells (5×10^4) were injected intravenously into the tail veins of C57B1/6 mice. The mice were given intraperitoneal (i.p.) treatments of either 1.0 ml 2.8% DMSO alone (control), 1.0 ml (5.0 mg/ml 2.8% DMSO) 2-phthalimidinoglutaric acid (EM-138) in DMSO, or 1.0 ml (5.0 mg/ml 2.8%) 2-methyl-2-phthalimidinoglutaric acid (2-Me-EM-138) in DMSO four times a day beginning 72 hours after injection of the tumor cells. Fourteen days after tumor cell inoculation, the lungs were removed from the mice and the surface pulmonary metastases were counted.
B16-BL6 melanoma cells (5×10^4) were injected intravenously into the tail veins of C57B1/6 mice. The mice were given intraperitoneal (i.p.) treatments of either 1.0 ml 2.8% DMSO alone (control), 1.0 ml (5.0 mg/ml) DL-2-methyl-2-phthalimidinoglutaric acid (racemate) in 2.8% DMSO, 1.0 ml (5.0 mg/ml) (R)-(+)-2-methyl-2-phthalimidinoglutaric acid (JS-2-13-P1) in 2.8% DMSO, or (S)-(−)-2-methyl-2-phthalimidinoglutaric acid (JS-2-13-P2) in 2.8% DMSO four times a day beginning 72 hours after injection of the tumor cells. Fourteen days after tumor cell inoculation, the lungs were removed from the mice and the surface pulmonary metastases were counted.
B16-BL6 melanoma cells (5×10^4) were injected intravenously into the tail veins of C57B1/6 mice. The mice were given intraperitoneal (i.p.) treatments of one of the following solutions four times a day beginning 72 hours after injection of the tumor cells. [drawing 4] • 1.0 ml of thalidomide in 2.8% DMSO • 1.0 ml of 3′-hydroxy-2-phthalimidinoglutaric acid in 2.8% DMSO (compound 5a) • 1.0 ml of 4′-hydroxy-2-phthalimidinoglutaric acid in 2.8% DMSO (compound 5b) • 1.0 ml of 2-phthalimidinoglutaric acid (EM-138) in 2.8% DMSO (compound 5c) • 1.0 ml of DL-2-methyl-2-phthalimidinoglutaric acid (racemate) in 2.8% DMSO (compound 7) • 1.0 ml of (R)-(+)-2-methyl-2-phthalimidinoglutaric acid (JS-2-13-P1) in 2.8% DMSO (compound 7-R-(+)) • 1.0 ml of (S)-(−)-2-methyl-2-phthalimidinoglutaric acid (JS-2-13-P2) in 2.8% DMSO (compound 7-S-(−))
A dose of 0.4 mmol/kg was used for each compound tested. Fourteen days after tumor cell inoculation, the lungs were removed from the mice and the surface pulmonary metastases were counted.
This experiment was repeated at varying doses. The in the following table represent the average values for three of the experiment.

[2] = system: vascular endothelial cell proliferation; conditions: endothelial versus tumor cell proliferation in vitro; cited from earlier work
[3] = system: B16-BL6 melanoma cells; assay: B16-BL6 melanoma pulmonary metastasis model, oral (gavage) treatment; type: in vivo, C57B1/6 mice
Description: B16-BL6 melanoma cells (5×10^4) were injected intravenously into the tail veins of C57B1/6 mice. Three days later, the mice received a gavage treatment with 0.8 mmol/kg of 2-phthalimidinoglutaric acid (EM-138). The mice received either a single treatment, five treatments on alternate days, or one treatment every day for eleven days. Fourteen days after tumor cell inoculation, the lungs were removed from the mice and the surface pulmonary metastases were counted. The values shown are the mean of 5 mice per group. The bars on the graph represent the standard deviation.
B16-BL6 melanoma cells (5×10^4) were injected intravenously into the tail veins of C57B1/6 mice. The mice were given a single oral treatment of 2-phthalimidinoglutaric acid (EM-138) of 0.8 mmol/kg. The treatment was initiated one day prior to tumor cells or on day 1, 2, 3, 5, or 7 after tumor cells. Fourteen days after tumor cell inoculation, the lungs were removed from the mice and the surface pulmonary metastases were counted. The values shown are the mean of 5 mice per group. The bars on the graph represent the standard deviation.

[4] = Resistance to hydrolysis; type: physicochemical; conditions: compared with thalidomide
[5] = Racemization of enantiomers; type: physicochemical

IC50 (50% inhibition of surface metastasis) [1] | SMILES | T/C (ratio of lung metastases of treated vs. control animals) [1] | anti-tumor activity (summary in words) [1] | also measured
0.2^a mmol/kg | CC(CCC(=O)O)(C(=O)O)N1Cc2ccccc2C1=O (racemic) [Compound 7, DL-2-methyl-2-phthalimidinoglutaric acid] | 0.25 | considerably greater inhibitory activity than thalidomide | angiogenesis inhibitory activity (comparison in words) [1]: as potent an inhibitor of angiogenesis as EM-138; Mean Number of Pulmonary Metastases [1]: 84; % Inhibition [1]: 60%
No activity^b | C[C@@](CCC(=O)O)(C(=O)O)N1Cc2ccccc2C1=O [7-R-(+), (R)-(+)-2-methyl-2-phthalimidinoglutaric acid] | 0.7 | little or no activity | –
0.1^a mmol/kg | C[C@](CCC(=O)O)(C(=O)O)N1Cc2ccccc2C1=O [7-S-(−), (S)-(−)-2-methyl-2-phthalimidinoglutaric acid] | 0.15 | – | angiogenesis inhibitory activity (comparison in words) [1]: greater angiogenesis inhibitory activity than does the (R) isomer
– | CO[C@@H]1[C@H](OC(=O)NC(=O)CCl)CC[C@]2(CO2)[C@H]1[C@@]1(C)O[C@@H]1CC=C(C)C [AGM-1470] | – | – | half-maximal inhibition of endothelial cell proliferation at lower concentration than tumor cell proliferation [2]: 4 logs
– | O=C(O)CCC(C(=O)O)N1C(=O)c2ccccc2C1O (centres unmarked) [Compound 5a, 3′-hydroxy-2-phthalimidinoglutaric acid] | 0.95 | – | –
– | O=C(O)CCC(C(=O)O)N1Cc2c(O)cccc2C1=O (centres unmarked) [Compound 5b, 4′-hydroxy-2-phthalimidinoglutaric acid] | 0.9 | – | –
0.2^a mmol/kg | O=C(O)CCC(C(=O)O)N1Cc2ccccc2C1=O (centres unmarked) [Compound 5c, 2-phthalimidinoglutaric acid] | 0.2 | considerably greater inhibitory activity than thalidomide | Mean Number of Pulmonary Metastases [1]: 85; % Inhibition [1]: 60%; inhibition of metastasis ([3]; dose of 0.8 mmol/kg/day): greater than 90%; inhibition of metastasis ([3]; single dose): 50%; resistance to hydrolysis [4]: relatively resistant to hydrolysis; racemization of enantiomers [5]: readily racemize
3.2^a mmol/kg | O=C1CCC(N2C(=O)c3ccccc3C2=O)C(=O)N1 (centres unmarked) [Thalidomide, thalidomide, reference compound] | 0.9 | – | –
